Key:
Design in all cases: scale not given: the % may be the effect or the level left
[1] = molecular target: Serine/threonine-protein kinase 24 (Homo sapiens) (UniProt Q9Y6E0); assay: Inhibition of human MST3 assessed as enzyme activity at 1 uM using myelin basic protein as substrate preincubated for 20 mins followed by [gamma-33P]-ATP addition and measured after 120 mins by radiometric Hot-SpotSM Kinase assay relative to control
[2] = molecular target: Cyclin-dependent kinase 1/cyclin B1 (Homo sapiens) (UniProt P06493+P14635); assay: Inhibition of human CDK1/cyclin B assessed as enzyme activity at 1 uM using RB Protein as substrate preincubated for 20 mins followed by [gamma-33P]-ATP addition and measured after 120 mins by radiometric Hot-SpotSM Kinase assay relative to control; format: protein-complex assay
[3] = molecular target: Serine/threonine-protein kinase NIM1 (Homo sapiens) (UniProt Q8IY84); assay: Inhibition of human NIM1 assessed as enzyme activity at 1 uM using KKKVSRSGLYRSPSMPENLNRPR as substrate preincubated for 20 mins followed by [gamma-33P]-ATP addition and measured after 120 mins by radiometric Hot-SpotSM Kinase assay relative to control
[4] = molecular target: Ephrin type-A receptor 7 (Homo sapiens) (UniProt Q15375); assay: Inhibition of human EPHA7 assessed as enzyme activity at 1 uM using poly[Glu:Tyr] (4:1) as substrate preincubated for 20 mins followed by [gamma-33P]-ATP addition and measured after 120 mins by radiometric Hot-SpotSM Kinase assay relative to control
[5] = molecular target: Vascular endothelial growth factor receptor 1 (Homo sapiens) (UniProt P17948); assay: Inhibition of human FLT1 assessed as enzyme activity at 1 uM using poly[Glu:Tyr] (4:1) as substrate preincubated for 20 mins followed by [gamma-33P]-ATP addition and measured after 120 mins by radiometric Hot-SpotSM Kinase assay relative to control
[6] = molecular target: T1, NUAK family SNF1-like kinase 2 (Homo sapiens) (UniProt Q9H093); assay: Inhibition of human SNARK assessed as enzyme activity at 1 uM using KKKVSRSGLYRSPSMPENLNRPR as substrate preincubated for 20 mins followed by [gamma-33P]-ATP addition and measured after 120 mins by radiometric Hot-SpotSM Kinase assay relative to control
T1 sequence (whole entry): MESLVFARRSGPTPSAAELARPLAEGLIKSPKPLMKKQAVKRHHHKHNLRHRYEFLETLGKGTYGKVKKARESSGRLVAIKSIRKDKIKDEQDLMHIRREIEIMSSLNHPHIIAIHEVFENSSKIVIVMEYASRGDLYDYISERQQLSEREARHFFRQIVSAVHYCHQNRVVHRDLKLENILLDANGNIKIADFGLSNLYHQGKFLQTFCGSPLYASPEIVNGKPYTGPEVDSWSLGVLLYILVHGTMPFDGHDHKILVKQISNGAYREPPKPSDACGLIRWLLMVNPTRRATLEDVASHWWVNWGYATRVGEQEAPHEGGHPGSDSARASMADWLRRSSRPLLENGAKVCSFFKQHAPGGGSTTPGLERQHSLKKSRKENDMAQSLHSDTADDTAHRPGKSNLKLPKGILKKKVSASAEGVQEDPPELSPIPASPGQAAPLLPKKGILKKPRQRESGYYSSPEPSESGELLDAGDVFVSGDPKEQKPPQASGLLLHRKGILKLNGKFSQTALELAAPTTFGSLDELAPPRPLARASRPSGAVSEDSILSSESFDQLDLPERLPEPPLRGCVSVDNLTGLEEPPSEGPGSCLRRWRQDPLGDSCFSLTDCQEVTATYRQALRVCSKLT

[7] = molecular target: Calcium/calmodulin-dependent protein kinase type 1D (Homo sapiens) (UniProt Q8IU85); assay: Inhibition of human CAMK1d assessed as enzyme activity at 1 uM using KKALRRQETVDAL as substrate preincubated for 20 mins followed by [gamma-33P]-ATP addition and measured after 120 mins by radiometric Hot-SpotSM Kinase assay relative to control
[8] = molecular target: CDK9/cyclin T1 (Homo sapiens) (UniProt O60563+P50750); assay: Inhibition of human CDK9/cyclin T1 assessed as enzyme activity at 1 uM using KTFCGTPEYLAPEVRREPRILSEEEQEMFRDFDYIADWC as substrate preincubated for 20 mins followed by [gamma-33P]-ATP addition and measured after 120 mins by radiometric Hot-SpotSM Kinase assay relative to control; format: protein-complex assay
[9] = molecular target: Ephrin type-A receptor 2 (Homo sapiens) (UniProt P29317); assay: Inhibition of human EPHA2 assessed as enzyme activity at 1 uM using poly[Glu:Tyr] (4:1) as substrate preincubated for 20 mins followed by [gamma-33P]-ATP addition and measured after 120 mins by radiometric Hot-SpotSM Kinase assay relative to control
[10] = molecular target: T2, Dual specificity mitogen-activated protein kinase kinase 7 (Homo sapiens) (UniProt O14733); assay: Inhibition of human MKK7 assessed as enzyme activity at 1 uM using JNK (K55M) as substrate preincubated for 20 mins followed by [gamma-33P]-ATP addition and measured after 120 mins by radiometric Hot-SpotSM Kinase assay relative to control
T2 sequence (whole entry): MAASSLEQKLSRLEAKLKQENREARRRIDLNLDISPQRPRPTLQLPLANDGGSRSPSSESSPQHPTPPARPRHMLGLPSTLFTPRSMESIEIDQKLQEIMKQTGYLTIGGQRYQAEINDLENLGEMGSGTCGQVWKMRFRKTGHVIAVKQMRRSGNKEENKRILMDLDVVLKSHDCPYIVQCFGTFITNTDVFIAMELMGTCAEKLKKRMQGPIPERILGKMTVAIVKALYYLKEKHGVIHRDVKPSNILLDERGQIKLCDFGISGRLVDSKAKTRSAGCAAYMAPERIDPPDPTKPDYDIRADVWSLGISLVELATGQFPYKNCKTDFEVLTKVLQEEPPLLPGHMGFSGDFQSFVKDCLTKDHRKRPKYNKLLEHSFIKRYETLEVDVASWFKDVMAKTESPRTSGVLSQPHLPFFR

[11] = molecular target: CDK7/Cyclin H/MNAT1 (Homo sapiens) (UniProt P51946+P50613+P51948); assay: Inhibition of human CDK7/Cyclin H/MNAT1 assessed as enzyme activity at 1 uM using myelin basic protein as substrate preincubated for 20 mins followed by [gamma-33P]-ATP addition and measured after 120 mins by radiometric Hot-SpotSM Kinase assay relative to control; format: protein-complex assay

Chain of Cyclin-dependent kinase 1/cyclin B1 (Homo sapiens) (P06493 whole entry, looked up): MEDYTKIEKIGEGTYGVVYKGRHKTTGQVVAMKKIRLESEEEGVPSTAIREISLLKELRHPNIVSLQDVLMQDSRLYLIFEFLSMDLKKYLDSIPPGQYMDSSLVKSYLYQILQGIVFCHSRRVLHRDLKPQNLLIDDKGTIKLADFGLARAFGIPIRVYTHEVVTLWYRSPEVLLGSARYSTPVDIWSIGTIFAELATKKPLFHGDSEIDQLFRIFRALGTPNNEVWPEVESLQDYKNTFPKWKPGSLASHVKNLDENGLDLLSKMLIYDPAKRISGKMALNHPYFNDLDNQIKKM
Chain of Cyclin-dependent kinase 1/cyclin B1 (Homo sapiens) (P14635 whole entry, looked up): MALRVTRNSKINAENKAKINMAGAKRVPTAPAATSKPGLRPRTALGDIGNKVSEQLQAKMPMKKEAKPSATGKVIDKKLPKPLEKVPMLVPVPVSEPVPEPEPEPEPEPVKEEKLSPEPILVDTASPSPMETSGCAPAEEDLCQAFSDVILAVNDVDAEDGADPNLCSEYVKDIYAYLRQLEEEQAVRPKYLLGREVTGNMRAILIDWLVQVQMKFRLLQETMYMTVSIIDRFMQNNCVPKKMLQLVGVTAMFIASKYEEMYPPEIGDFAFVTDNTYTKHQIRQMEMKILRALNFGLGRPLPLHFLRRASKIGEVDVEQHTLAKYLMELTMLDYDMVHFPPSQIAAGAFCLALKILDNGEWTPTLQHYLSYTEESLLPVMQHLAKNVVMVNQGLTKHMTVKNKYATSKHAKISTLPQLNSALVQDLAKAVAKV
Chain of Vascular endothelial growth factor receptor 1 (Homo sapiens) (P17948 whole entry): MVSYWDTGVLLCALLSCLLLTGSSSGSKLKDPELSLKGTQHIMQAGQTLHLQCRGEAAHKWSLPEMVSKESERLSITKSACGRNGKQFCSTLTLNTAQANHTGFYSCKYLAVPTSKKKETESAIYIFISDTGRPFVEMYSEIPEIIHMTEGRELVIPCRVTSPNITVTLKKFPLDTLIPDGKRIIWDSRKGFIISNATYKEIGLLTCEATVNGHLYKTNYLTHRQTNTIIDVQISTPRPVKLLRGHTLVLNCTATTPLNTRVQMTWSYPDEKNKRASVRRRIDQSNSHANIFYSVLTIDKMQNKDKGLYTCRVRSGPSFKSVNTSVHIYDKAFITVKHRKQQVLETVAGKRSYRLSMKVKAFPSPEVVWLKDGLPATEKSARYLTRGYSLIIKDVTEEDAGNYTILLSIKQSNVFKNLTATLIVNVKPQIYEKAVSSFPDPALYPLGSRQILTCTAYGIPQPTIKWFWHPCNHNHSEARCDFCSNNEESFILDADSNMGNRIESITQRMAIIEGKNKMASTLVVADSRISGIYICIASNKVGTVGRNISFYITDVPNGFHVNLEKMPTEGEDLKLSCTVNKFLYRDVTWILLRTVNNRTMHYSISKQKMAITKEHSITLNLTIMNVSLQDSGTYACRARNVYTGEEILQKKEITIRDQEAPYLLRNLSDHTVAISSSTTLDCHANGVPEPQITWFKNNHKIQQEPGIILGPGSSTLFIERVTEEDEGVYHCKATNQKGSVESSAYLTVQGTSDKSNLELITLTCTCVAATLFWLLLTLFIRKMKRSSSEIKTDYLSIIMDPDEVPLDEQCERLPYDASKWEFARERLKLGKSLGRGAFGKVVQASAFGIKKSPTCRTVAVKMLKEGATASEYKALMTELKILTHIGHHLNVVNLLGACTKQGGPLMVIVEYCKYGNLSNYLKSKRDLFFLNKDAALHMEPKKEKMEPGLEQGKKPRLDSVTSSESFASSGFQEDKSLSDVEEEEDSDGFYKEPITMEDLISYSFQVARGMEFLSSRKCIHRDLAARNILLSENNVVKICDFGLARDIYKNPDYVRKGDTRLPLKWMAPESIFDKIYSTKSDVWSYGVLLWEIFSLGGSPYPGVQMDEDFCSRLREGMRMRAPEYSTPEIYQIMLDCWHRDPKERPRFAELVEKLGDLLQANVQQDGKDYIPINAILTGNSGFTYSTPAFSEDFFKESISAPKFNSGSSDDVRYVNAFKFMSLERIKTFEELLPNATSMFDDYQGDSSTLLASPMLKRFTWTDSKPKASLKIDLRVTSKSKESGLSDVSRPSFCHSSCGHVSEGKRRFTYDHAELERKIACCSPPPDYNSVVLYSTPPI
Chain of Serine/threonine-protein kinase 24 (Homo sapiens) (Q9Y6E0 whole entry, looked up): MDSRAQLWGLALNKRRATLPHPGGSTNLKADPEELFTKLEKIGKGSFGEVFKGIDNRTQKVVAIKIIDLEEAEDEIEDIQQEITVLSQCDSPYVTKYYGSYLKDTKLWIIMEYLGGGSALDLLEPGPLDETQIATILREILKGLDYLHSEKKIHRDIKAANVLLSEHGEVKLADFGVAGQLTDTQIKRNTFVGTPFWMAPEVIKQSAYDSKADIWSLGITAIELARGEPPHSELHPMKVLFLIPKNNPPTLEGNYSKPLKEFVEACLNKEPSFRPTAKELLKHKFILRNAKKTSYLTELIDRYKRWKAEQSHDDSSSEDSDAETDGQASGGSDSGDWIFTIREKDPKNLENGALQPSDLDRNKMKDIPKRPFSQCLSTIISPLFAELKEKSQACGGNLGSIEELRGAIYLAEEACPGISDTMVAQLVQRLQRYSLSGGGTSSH
Chain of Ephrin type-A receptor 2 (Homo sapiens) (P29317 whole entry): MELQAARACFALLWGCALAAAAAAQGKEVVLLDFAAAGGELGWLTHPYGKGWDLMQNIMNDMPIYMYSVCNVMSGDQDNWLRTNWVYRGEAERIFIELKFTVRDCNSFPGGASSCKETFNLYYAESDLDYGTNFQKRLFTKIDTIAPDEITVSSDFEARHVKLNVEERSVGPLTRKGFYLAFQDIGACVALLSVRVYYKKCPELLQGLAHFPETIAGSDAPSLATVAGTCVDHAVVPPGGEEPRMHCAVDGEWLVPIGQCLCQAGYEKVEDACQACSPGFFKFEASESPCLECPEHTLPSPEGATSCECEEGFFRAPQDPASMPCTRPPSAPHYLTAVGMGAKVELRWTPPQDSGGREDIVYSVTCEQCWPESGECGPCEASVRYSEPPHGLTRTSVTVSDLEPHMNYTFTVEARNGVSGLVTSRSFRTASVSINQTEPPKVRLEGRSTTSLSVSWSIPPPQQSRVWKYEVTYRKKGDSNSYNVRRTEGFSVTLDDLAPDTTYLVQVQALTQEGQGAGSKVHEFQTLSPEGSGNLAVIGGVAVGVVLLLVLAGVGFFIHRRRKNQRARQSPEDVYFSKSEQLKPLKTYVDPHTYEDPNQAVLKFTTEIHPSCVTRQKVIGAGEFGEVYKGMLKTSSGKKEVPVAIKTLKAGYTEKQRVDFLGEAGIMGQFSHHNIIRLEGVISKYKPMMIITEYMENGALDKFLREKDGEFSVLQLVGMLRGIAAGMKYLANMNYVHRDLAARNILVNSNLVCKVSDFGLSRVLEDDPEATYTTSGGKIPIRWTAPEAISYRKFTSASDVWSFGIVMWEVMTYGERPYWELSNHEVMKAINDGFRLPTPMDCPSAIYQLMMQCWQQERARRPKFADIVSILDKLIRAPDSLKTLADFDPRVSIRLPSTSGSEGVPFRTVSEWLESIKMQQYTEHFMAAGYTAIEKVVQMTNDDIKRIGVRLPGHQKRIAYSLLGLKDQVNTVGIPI
Chain of Calcium/calmodulin-dependent protein kinase type 1D (Homo sapiens) (Q8IU85 whole entry, looked up): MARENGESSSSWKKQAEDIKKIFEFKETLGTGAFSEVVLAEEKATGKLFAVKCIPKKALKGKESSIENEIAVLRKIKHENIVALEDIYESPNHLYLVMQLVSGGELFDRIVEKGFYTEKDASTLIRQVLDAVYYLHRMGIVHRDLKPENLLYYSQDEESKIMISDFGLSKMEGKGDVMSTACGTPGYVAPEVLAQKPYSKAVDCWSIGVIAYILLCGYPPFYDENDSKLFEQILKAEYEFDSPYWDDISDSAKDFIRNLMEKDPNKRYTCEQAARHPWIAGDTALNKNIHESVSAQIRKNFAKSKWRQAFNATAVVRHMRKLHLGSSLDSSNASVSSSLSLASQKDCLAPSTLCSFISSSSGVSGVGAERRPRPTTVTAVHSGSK
Chain of Serine/threonine-protein kinase NIM1 (Homo sapiens) (Q8IY84 whole entry): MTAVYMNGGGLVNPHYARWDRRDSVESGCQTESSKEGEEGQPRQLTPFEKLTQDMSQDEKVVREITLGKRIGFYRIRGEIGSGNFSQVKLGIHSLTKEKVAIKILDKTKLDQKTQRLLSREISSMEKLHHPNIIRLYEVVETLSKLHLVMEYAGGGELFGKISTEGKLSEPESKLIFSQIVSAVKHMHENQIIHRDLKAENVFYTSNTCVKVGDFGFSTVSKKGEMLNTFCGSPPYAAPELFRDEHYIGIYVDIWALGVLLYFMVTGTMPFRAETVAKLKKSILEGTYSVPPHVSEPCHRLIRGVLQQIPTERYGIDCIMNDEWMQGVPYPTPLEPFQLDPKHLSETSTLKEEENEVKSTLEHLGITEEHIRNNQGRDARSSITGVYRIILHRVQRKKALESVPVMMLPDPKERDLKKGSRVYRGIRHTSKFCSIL

Row | Structure (SMILES) | Activity [1] [%] | Activity [2] [%] | Activity [3] [%] | Activity [4] [%] | Activity [5] [%] | Activity [6] [%] | Activity [7] [%] | Activity [8] [%] | Activity [9] [%] | Activity [10] [%] | Activity [11] [%]
1 | CC[C@H](Nc1ncnc2[nH]cnc12)c1nc2cccc(F)c2c(=O)n1-c1ccccc1 | 88.2 | 102 | 93.6 | 89.7 | 94.4 | 93.2 | 98.8 | 89.5 | 97 | 95.1 | 98.1
2 | C[C@H](Nc1ncnc2nc[nH]c12)c1cc2cccc(Cl)c2c(=O)n1-c1ccccc1 | 87.3 | 97 | 94 | 93.4 | 94.3 | 93.2 | 96 | 96.2 | 96.3 | 96 | 95.2
3 | CC(C)Oc1ccc(-c2nn([C@@H](C)c3oc4ccc(F)cc4c(=O)c3-c3cccc(F)c3)c3ncnc(N)c23)cc1F [UMBRALISIB] | 81.6 | 98.9 | 93 | 88.7 | 92.3 | 95.9 | 99.1 | 98.5 | 97.2 | 96.9 | 101
